Data on 12 molecules can be found in ChEMBL document CHEMBL1201862, “PubChem BioAssay data set” (2004).

Some test systems named below: 786-0; HCT-116; HOP-62; HOP-92; Hs-578T; IGROV-1; MDA-MB-231; Malme-3M; NCI-H460; NCI/ADR-RES; OVCAR-3; PC-3; SK-MEL-28; SK-MEL-2; SK-MEL-5; SN12C; CCRF-CEM; SF-295.
What all share (test): growth of human tumour cells (NCI), 48 h

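How tested: cells in 96-well plates exposed to compound for 48 hours at five concentrations. GI50: concentration for 50% inhibition of growth.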 The source made the active and inactive calls. No stated cut-off is given here; in the data, active = GI50 up to about 1.1 µM and inactive = higher. Bounds are passed on as bounds.

As to `Cc1ccc2c(c1)SC1=Nc3sc4cc(C)ccc4[n+]3CN12`, the GI50 in the assay with 786-0 was 32.2 µM (inactive); in the assay with HCT-116, 10.5 µM (inactive); in the assay on HOP-62 it was 9.57 µM (inactive); in the assay with HOP-92, 2.97 µM (inactive); in the assay on Hs-578T, 6.87 µM (inactive); with IGROV-1, 16.1 µM (inactive). The GI50 in the assay on MDA-MB-231 was 10.8 µM (inactive); in the assay on Malme-3M it was 0.568 µM (active); with NCI-H460, 11.7 µM (inactive); with NCI/ADR-RES, 34.4 µM (inactive); with OVCAR-3, 1.01 µM (active); with PC-3, 15.4 µM (inactive). For the same molecule, the GI50 was 13 µM (inactive) in the assay with SK-MEL-28, 3.51 µM (inactive) in the assay on SK-MEL-2, 1.07 µM (active) in the assay on SK-MEL-5 and 7.16 µM (inactive) with SN12C.

In the case of `CC(O)(c1ccccc1)c1nccc2ccccc12` (stereo not given), the GI50 in the assay with 786-0 was > 100 µM (inactive); in the assay on CCRF-CEM, 58.6 µM (inactive); in the assay on HCT-116 it was 61.4 µM (inactive); with HOP-62, > 100 µM (inactive); with HOP-92, 22.4 µM (inactive); with Hs-578T it was 45.8 µM (inactive). Further, the GI50 was 37.8 µM (inactive) in the assay on IGROV-1; 20.1 µM (inactive) with MDA-MB-231; 64.1 µM (inactive) with Malme-3M; 96.4 µM (inactive) with NCI-H460; 43.7 µM (inactive) in the assay on NCI/ADR-RES; 57.9 µM (inactive) in the assay with OVCAR-3. Besides, the GI50 was 22.6 µM (inactive) in the assay on PC-3; 55 µM (inactive) in the assay with SF-295; > 100 µM (inactive) in the assay on SK-MEL-28; 44.2 µM (inactive) in the assay with SK-MEL-5; > 100 µM (inactive) with SN12C.

Take `C=C(CCOC)CCC1CCCCC(=C)[C@H]1OC(C)=O` (stereo not given in full): the GI50 in the assay on 786-0, in the assay with CCRF-CEM, in the assay on HCT-116, in the assay with HOP-62, in the assay with HOP-92 and in the assay with Hs-578T was > 100 µM (inactive) in each case. Besides, the GI50 in the assay on IGROV-1 was > 100 µM (inactive); in the assay with MDA-MB-231, > 100 µM (inactive); with NCI-H460, > 100 µM (inactive); in the assay with NCI/ADR-RES it was 78.3 µM (inactive); in the assay with OVCAR-3, > 100 µM (inactive); with PC-3 it was > 100 µM (inactive). Moreover, the GI50 with SF-295 is > 100 µM (inactive); with SK-MEL-28 it was > 100 µM (inactive); with SK-MEL-2, > 100 µM (inactive); in the assay with SK-MEL-5, 63.2 µM (inactive); in the assay on SN12C it was > 100 µM (inactive).

Consider `O=C1CCc2cc3c(cc21)CC1(Cc2cc4c(cc2C1)CCCC4)C3`, for which the GI50 was 72.3 µM (inactive) in the assay with CCRF-CEM; 37.2 µM (inactive) with HCT-116; 83.2 µM (inactive) in the assay with HOP-62; 0.0489 µM (active) with HOP-92; 30.5 µM (inactive) with Hs-578T; 97.5 µM (inactive) in the assay with IGROV-1. For the same molecule, the GI50 in the assay with MDA-MB-231 is 19.4 µM (inactive); with Malme-3M it was 90.6 µM (inactive); in the assay with NCI-H460, 41.4 µM (inactive); with NCI/ADR-RES, > 100 µM (inactive); in the assay on OVCAR-3, 53.6 µM (inactive); in the assay on PC-3, > 100 µM (inactive). Further, the GI50 with SF-295 is 33.9 µM (inactive); with SK-MEL-28, > 100 µM (inactive); in the assay with SK-MEL-2, > 100 µM (inactive); in the assay with SK-MEL-5, 24.6 µM (inactive); in the assay with SN12C it was > 100 µM (inactive).

Consider `O=C(C=P(c1ccccc1)(c1ccccc1)c1ccccc1)c1cccc(-c2cccc([N+](=O)[O-])c2)c1`, for which the GI50 is 4.24 µM (inactive) in the assay on 786-0; 2.55 µM (inactive) in the assay with CCRF-CEM; 3.55 µM (inactive) in the assay with HCT-116; 8.04 µM (inactive) in the assay with HOP-62; 1.32 µM (inactive) in the assay on HOP-92; 3.44 µM (inactive) with Hs-578T. The GI50 in the assay with IGROV-1 was 2.94 µM (inactive); with MDA-MB-231, 2 µM (inactive); with Malme-3M, 2.86 µM (inactive); in the assay on NCI-H460, 2.88 µM (inactive); in the assay on NCI/ADR-RES it was 3.42 µM (inactive); in the assay on OVCAR-3 it was 3.03 µM (inactive). Further, the GI50 was 2.84 µM (inactive) with PC-3; 3.18 µM (inactive) with SF-295; 3.1 µM (inactive) with SK-MEL-28; 2.37 µM (inactive) with SK-MEL-5; 2.97 µM (inactive) in the assay with SN12C.

For the molecule `COC(=O)c1cc2c(c(C(=O)OC)c1)CCC2`, the GI50 with 786-0 is > 100 µM (inactive); with CCRF-CEM it was 50.8 µM (inactive); with HCT-116 it was 76.6 µM (inactive); in the assay with HOP-62, > 100 µM (inactive); with HOP-92 it was 49.9 µM (inactive); with Hs-578T, > 100 µM (inactive). Besides, the GI50 in the assay with IGROV-1 is > 100 µM (inactive); in the assay with MDA-MB-231, 82.8 µM (inactive); in the assay on Malme-3M, > 100 µM (inactive); with NCI-H460 it was > 100 µM (inactive); with NCI/ADR-RES, 59.8 µM (inactive); in the assay with OVCAR-3, 49.4 µM (inactive). The GI50 with PC-3 is 68.5 µM (inactive); in the assay with SF-295, > 100 µM (inactive); with SK-MEL-28, > 100 µM (inactive); with SK-MEL-2, > 100 µM (inactive); with SK-MEL-5, 56.1 µM (inactive).

As for `O=Cc1cc([N+](=O)[O-])no1`, the GI50 in the assay with CCRF-CEM was 16.6 µM (inactive); in the assay with HCT-116 it was 11 µM (inactive); in the assay on HOP-62, 38.1 µM (inactive); in the assay on HOP-92, > 100 µM (inactive); in the assay on Hs-578T, 46.6 µM (inactive); in the assay with IGROV-1, 59 µM (inactive). The GI50 is 26.5 µM (inactive) in the assay on MDA-MB-231; > 10 µM (inactive) with Malme-3M; 44.9 µM (inactive) with NCI-H460; 52.4 µM (inactive) with NCI/ADR-RES; 40.6 µM (inactive) in the assay with OVCAR-3; 24.7 µM (inactive) in the assay with PC-3. Besides, the GI50 with SF-295 is 32.5 µM (inactive); in the assay with SK-MEL-28, > 100 µM (inactive); in the assay on SK-MEL-2, 24.4 µM (inactive); in the assay on SK-MEL-5 it was 20 µM (inactive); with SN12C, 38.9 µM (inactive).

Regarding `C/C(=N\NC(N)=S)c1ccc2c(c1)Sc1ccccc1O2`, the GI50 is 3.18 µM (inactive) with 786-0; 3.67 µM (inactive) with CCRF-CEM; 2.69 µM (inactive) with HCT-116; 3.46 µM (inactive) with HOP-62; 3.17 µM (inactive) in the assay with HOP-92; 3.78 µM (inactive) with Hs-578T. Further, the GI50 is 5.05 µM (inactive) in the assay with MDA-MB-231; 5.53 µM (inactive) in the assay with Malme-3M; 2.83 µM (inactive) in the assay with NCI-H460; 2.55 µM (inactive) in the assay on NCI/ADR-RES; 1.02 µM (active) in the assay on OVCAR-3; 2.59 µM (inactive) with PC-3. Besides, the GI50 is 4.63 µM (inactive) in the assay with SF-295; 3.81 µM (inactive) with SK-MEL-28; 2.11 µM (inactive) in the assay on SK-MEL-2; 1.58 µM (inactive) in the assay with SK-MEL-5; 3.34 µM (inactive) in the assay with SN12C.

`CCCc1c(O)nc(Nc2nc3ccccc3[nH]2)[nH]c1=O`: the GI50 is > 100 µM (inactive) in the assay on 786-0; 86.5 µM (inactive) in the assay on CCRF-CEM; > 100 µM (inactive) in the assay on HCT-116; > 100 µM (inactive) with HOP-92; > 100 µM (inactive) in the assay with Hs-578T; > 100 µM (inactive) in the assay on IGROV-1. Further, the GI50 in the assay with MDA-MB-231, in the assay on Malme-3M, in the assay with NCI-H460, in the assay on NCI/ADR-RES, in the assay on PC-3 and in the assay on SF-295 was > 100 µM (inactive) each time. In addition, the GI50 in the assay with SK-MEL-2, in the assay with SK-MEL-5 and with SN12C was > 100 µM (inactive) each time.

In the case of `C=CCn1c(-c2ccc([N+](=O)[O-])cc2)cs/c1=N\C(P(=O)(O)O)P(=O)(O)O`, the GI50 in the assay on 786-0, with CCRF-CEM, in the assay with HCT-116, in the assay on HOP-62, in the assay with HOP-92 and with Hs-578T was > 100 µM (inactive) in each case. Further, the GI50 in the assay on IGROV-1, in the assay on MDA-MB-231, in the assay with Malme-3M, in the assay with NCI-H460, in the assay with NCI/ADR-RES and with OVCAR-3 was > 100 µM (inactive) throughout. The GI50 in the assay on PC-3, in the assay on SF-295, in the assay on SK-MEL-28 and with SK-MEL-5 was > 100 µM (inactive) in each case.

`CCOc1ccc(NCC2CC/C(=C\c3ccc(O)cc3)C2=O)cc1` (stereo not given): the GI50 in the assay on 786-0 is 6.65 µM (inactive); with CCRF-CEM, 5.87 µM (inactive); in the assay with HCT-116 it was 9.64 µM (inactive); in the assay with HOP-62, 37.8 µM (inactive); in the assay with HOP-92, 15.2 µM (inactive); in the assay on Hs-578T, 28.8 µM (inactive). The GI50 in the assay with IGROV-1 is 18.9 µM (inactive); in the assay with MDA-MB-231, 19.2 µM (inactive); with Malme-3M it was 14.9 µM (inactive); in the assay on NCI-H460 it was 23.2 µM (inactive); in the assay on NCI/ADR-RES it was 18 µM (inactive); with OVCAR-3, 12.2 µM (inactive). For the same molecule, the GI50 is 16.9 µM (inactive) with PC-3; 24.5 µM (inactive) in the assay on SF-295; 15.5 µM (inactive) with SK-MEL-28; 19.1 µM (inactive) with SK-MEL-5; 18.5 µM (inactive) in the assay on SN12C.

As for `Cc1cc2cc3c(cc2c(-c2ccc(N)cc2)n1)OCO3`, the GI50 in the assay on 786-0 was 25.6 µM (inactive); in the assay on CCRF-CEM it was 28.5 µM (inactive); in the assay on HCT-116, 31.6 µM (inactive); in the assay on HOP-62, 57.1 µM (inactive); in the assay with HOP-92, 13.9 µM (inactive); in the assay on Hs-578T it was 51.3 µM (inactive). The GI50 was 14.5 µM (inactive) in the assay with IGROV-1; 13.7 µM (inactive) with MDA-MB-231; 86.9 µM (inactive) in the assay on Malme-3M; 21.3 µM (inactive) in the assay on NCI-H460; 72.9 µM (inactive) with NCI/ADR-RES; 22.4 µM (inactive) with OVCAR-3. In addition, the GI50 with PC-3 was 40.7 µM (inactive); with SF-295 it was 34.2 µM (inactive); with SK-MEL-2, 82.8 µM (inactive); in the assay with SK-MEL-5, 24.2 µM (inactive); with SN12C it was 39.4 µM (inactive).
